Consider 1 compound from patent US20250101026A1, “Functionalized Allopurinol Derivatives for Treatment of Alzheimer’s Disease” (BOARD OF REGENTS OF THE UNIVERSITY OF NEBRASKA, priority 2022, published 2025).

By IC50 is commonly meant the point on the concentration scale where inhibition reaches its midpoint.

“Also recorded” adds a separate entry of the source. Like-named read-outs stand apart in the source and are kept apart here.

For one data set, the target named is T1, Aβ-ABAD PPI (Homo sapiens, UniProt Q99714).
T1 construct: wildtype human SH-SY5Y cell lines, which are known to express ABAD; endogenous in cells; host or cells: SH-SY5Y
T1 sequence (Q99714 2-261 limits assumed): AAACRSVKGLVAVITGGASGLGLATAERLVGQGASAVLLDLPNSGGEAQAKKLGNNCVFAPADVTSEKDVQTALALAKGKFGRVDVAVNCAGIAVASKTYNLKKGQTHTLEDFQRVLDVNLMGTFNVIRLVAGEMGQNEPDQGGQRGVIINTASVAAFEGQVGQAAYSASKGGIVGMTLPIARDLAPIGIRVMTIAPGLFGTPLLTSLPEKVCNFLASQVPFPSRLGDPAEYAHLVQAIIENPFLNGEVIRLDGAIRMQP
Kind of data set: Estradiol ELISA assay: rescue of Aβ-induced reduction of estradiol levels in SH-SY5Y cells. It is filed as cell-based. The conditions noted are these: compounds 24 hours then Aβ 72 hours. The method, then:
(§1) Cell Culture. The cell line SH-SY5Y was cultured in DMEM/F12 media supplemented with 10% fetal bovine serum, 1% penicillin-streptomycin and maintained as monolayer cultures in a humidified atmosphere containing 5% CO2 at 37° C.^42 All cell lines were authenticated via short tandem repeat analysis and tested for mycoplasma using the a commercial mycoplasma detection kit as per the manufacturer's instructions, showing no contamination. Where indicated, cells were also cultured in DMEM/low glucose media. All compounds were diluted to 20 mM solution in DMSO and were serially diluted in cell culture media for cell treatments to a final concentration range of 0.01 to 100 μM, maintaining the final DMSO concentration at less than 1%. Positive control compound HupA was serially diluted in a similar fashion as the synthesized compounds.
(§2) Amyloid Preparation. The peptide Aβ1-42, referred to as “Aβ”, was obtained from a commercial source. The oligomers of Aβ were prepared using an established method,^43 Aβ peptide was resuspended in 0.5 mM NaOH at a concentration of […] and stored at −80° C. For use in cell cultures, the stock solution was incubated at 37° C. for 5-7 days. Before use, the peptide was diluted to 25 μM in DMEM/low glucose media.
Estradiol ELISA assay. SH-SY5Y cells were treated with compounds (24 hours), followed by Aβ (72 hours) in a similar fashion to that employed in the cell viability assays, the cell culture medium was collected, and cells were lysed using RIPA buffer and protease inhibitor cocktail, then proteins were quantified via BCA assay. An estradiol assay was performed. In brief, the plate was loaded with samples, along with the estradiol tracer and the specific antiserum to estradiol and incubated for one hour at room temperature. After five washing steps, Ellman's Reagent was added, and the plate developed for 60 minutes with gentle shaking at room temperature. The calculated estradiol concentration was normalized to the total protein content of the samples.
Statistical Analyses. The IC50 values of each compound were acquired from a single experiment with each inhibitor concentration run in triplicate and the statistical significance was calculated using the Student t test, or a one-way or two-way ANOVA. A P value of <0.05 was considered statistically significant. IC50 values were calculated.
To determine the effect of Aβ on estradiol production, and ABAD's role in this process, wildtype human SH-SY5Y cell lines, which are known to express ABAD, were incubated for 72 hours with Aβ.^20 Estradiol levels in the cell lysate were measured with a commercial ELISA-based estradiol assay. […] To determine if AG18051 treatment affects Aβ-induced reduction of estradiol levels, 0.1 or 1 μM AG18051 was preincubated in SH-SY5Y cells for 24 hours prior to Aβ exposure. […] AG18051 at 1 μM protected SH-SY5Y cells from Aβ-induced reduction of estradiol production to a greater significance than HupA. This confirms literature reports that AG18051 is neuroprotective and that it exerts this effect by ameliorating Aβ-induced reduction of estradiol production by ABAD.^20, 23
This assay methodology allows direct screening of compound activity in the presence of Aβ and provides direct evidence of the ability of compounds to rescue Aβ-induced reduction of estradiol production by ABAD. To measure the effect of AG18051 alone in SH-SY5Y cell lines, a 0.01-100 μM dose-response range was tested, and their effect on estradiol levels (FIG. 2B). […] To evaluate the effect of the increase of AG18051 dose in maintaining estradiol levels reduced by Aβ, AG18051 was tested in increasing concentrations in the presence of Aβ (FIG. 2B).
Background: An ELISA detects its analyte on a solid surface through an enzyme-linked reagent.

Data set [1] deals with SH-SY5Y cells. Kind of data set: Aβ-induced toxicity in SH-SY5Y cells, lactate dehydrogenase (LDH) release assay. It is filed as cell-based, human. The following applies: 1 μM, pretreated 24 hrs, then 25 μM Aβ 48 hrs. Here is the method: as §1, §2
Cell Viability Assays. […] Cell viability was measured after 48 hours using commercial MTS assay or lactate dehydrogenase (LDH) cytotoxicity assay. […]

Data set [2] concerns SH-SY5Y cells. Kind of data set: Mitochondrial Stress Test in Aβ-treated SH-SY5Y cells (extracellular flux analyzer). It is filed as cell-based, human. The method, then: Mitochondrial Stress Test. […] After 48 hours, media was replaced with assay medium consisting of XF Base Medium supplemented with 10 mM glucose, 10 mM pyruvic acid, and 1 mM L-glutamine. Subsequently, the analysis of mitochondrial oxygen consumption rate (OCR) was performed in a flux analyzer. The OCR values were obtained both during baseline (prior to addition of any Mito Stress Test substances), and after the addition of […], 2 μM FCCP and 0.5 μM rotenone+0.5 μM antimycin A, respectively. Prior to analysis, data were corrected by withdrawing non-mitochondrial respiration (measured after the injection of rotenone and antimycin A) from all measured OCR values. After the experiment, cells were lysed using RIPA buffer and protease inhibitor cocktail, then proteins were quantified via BCA assay. Results were normalized to protein concentration of each well to its OCR value.

The subject of data set [3] is SH-SY5Y cells. The experiment in a line: Cell viability of SH-SY5Y cells with compound alone. It is filed as cell-based, human. The conditions noted are these: up to 100 μM. Here is the method: as §1
Cell Viability Assays. The SH-SY5Y cells were plated at a density of 50,000 cells/well in 96-well plates and allowed to adapt overnight in a humidified atmosphere containing 5% CO2 at 37° C. The cells were pretreated (24 hours) with the test compound and exchanged to a serum-free DMEM/low glucose media, prior to incubation with 25 μM of Aβ. Cell viability was measured after 48 hours using commercial MTS assay or lactate dehydrogenase (LDH) cytotoxicity assay. […]

Take `O=C(C(c1ccccc1)n1cnc2[nH]ncc2c1=S)N1CCC(O)CC1` (stereo not shown) [Compound 14b, 1-(4-hydroxypiperidin-1-yl)-2-phenyl-2-(4-thioxo-1,4-dihydro-5H-pyrazolo[3,4-d]pyrimidin-5-yl)ethan-1-one]: the IC50 at Aβ-ABAD PPI (amelioration of Aβ-induced reduction of estradiol levels, read-out: IC50 (estradiol assay)) worked out at 740 nM; at Aβ-ABAD PPI (read-out: IC50 (estradiol assay), unit inferred), 738 ± 105 nM. Besides, in the data set with SH-SY5Y cells [1], the “LDH release compared with Aβ treatment alone” value was “significantly reducing LDH release; also recorded: significantly rescued”. For the same compound, in the data set with SH-SY5Y cells [2] (1 μM pretreatment 24 hrs, then 25 μM Aβ 48 hrs), the “basal respiration: restored share of the cell respiration reduced by Aβ” value amounted to 46%. Besides, in the data set on SH-SY5Y cells [2] (1 μM pretreatment, then 25 μM Aβ), the “proton leak, ATP production and maximal respiration: restoration of mitochondrial function lost by Aβ” value is on record as “trend to restore; also recorded: trend to rescue”. Further, the “basal respiration, rescue of Aβ-mediated dysfunction” value with SH-SY5Y cells [2] (SH-SY5Y cells) is listed as “significantly rescuing”. Moreover, the “toxicity to reduce cell viability” value in the data set with SH-SY5Y cells [3] was “no toxicity; also recorded: non-toxic”.
